Measurements reported in ChEMBL document CHEMBL1150869, “Bombardolides: new antifungal and antibacterial gamma-lactones from the coprophilous fungus Bombardioidea anartia” (2001).

Tests used:
Format in all cases: functional
Conditions in all cases: read-out: IZ
Bacillus subtilis = assay: Antimicrobial activity against Bacillus subtilis ATCC 6051 at 200 ug/disk by standard disk diffusion method
Staphylococcus aureus = assay: Antimicrobial activity against Staphylococcus aureus ATCC 29213 at 200 ug/disk by standard disk diffusion method
Candida albicans = assay: Antimicrobial activity against Candida albicans ATCC 10231 at 200 ug/disk by standard disk diffusion method

| SMILES | zone of inhibition at 200 µg/disc (Bacillus subtilis) [mm] | zone of inhibition at 200 µg/disc (Staphylococcus aureus) [mm] | zone of inhibition at 200 µg/disc (Candida albicans) [mm] |
| --- | --- | --- | --- |
| CCCCC(O)c1cccc(O)c1 (centres undefined) | 12 | 19 |  |
| CC/C=C1C=C(/C=C/C(=O)O)C(=O)O/1 | 26 | 18 |  |
| CCCC1C=C(/C=C/CO)C(=O)O1 (centres undefined) [BOMBARDOLIDE D] |  |  | 20 |
| CC/C=C1/C=C(CCCO)C(=O)O1 [(E/Z)-BOMBARDOLIDE B] | 11 |  |  |
| CC/C=C1C=C(/C=C/CO)C(=O)O/1 | 19 | 14 | 35 |
